Here are results for two compounds from patent US9051310B2, “Nicotinamide derivative or salt thereof” (FUJIFILM Corporation, priority 2011, dated 2015).

Bounds are passed on as bounds.

Experiment [1] concerns the target T1, glutathione S-transferase (GST)-linked full-length human Syk protein (Homo sapiens, UniProt P43405).
T1 construct: glutathione S-transferase (GST)-linked full-length human Syk protein; purchased Carna Biosciences; host or cells: Baculovirus expression system
As to the kind of experiment: Syk enzyme assay. Format: biochemical. Particulars: 0.83 nM Syk, time-resolved fluorescence; read-out: IC50 of Syk-inhibitory activity. The essentials:
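Phosphotyrosine on a biotin-peptide substrate (0.5 μM) was read by time-resolved fluorescence at 615 and 665 nm with Eu-anti-pTyr antibody and APC-streptavidin after 1 h EDTA stop.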

Experiment [2] deals with mouse thrombocytopenia induced by anti-mouse CD41 antibody. As to the kind of experiment: Mouse thrombocytopenia model. Particulars: Platelet, female BALB/c mice, 50 mg/kg 1 hour before anti-CD41 antibody, blood sampling 4 hours after antibody, read-out: improvement of platelet count compared with the control group. Format: in vivo. As for the experimental part: Test compounds were tested to examine effects upon mouse thrombocytopenia. Each test compound (50 mg/kg) was administered to 5- to 7-week-old female BALB/c mice (Charles River Laboratories Japan, Inc.). One hour thereafter, an anti-mouse CD41 ([…]) antibody (SCB) (1 μg (200 μl)) was intravenously administered to each mouse so as to induce thrombocytopenia. Four hours after administration of the anti-CD41 antibody, blood sampling from the postcava was performed. The platelet count was determined using an automated hematology analyzer.

In experiment [3] the test system is THP-1 cells (phagocytosis of opsonized Escherichia coli). Kind of experiment: Antibody-dependent phagocytosis assay. Format: cell-based. Particulars: Homo sapiens; IFNγ differentiated THP-1 cells, opsonized pHrodo Escherichia coli, 3 hours; read-out: IC50 upon phagocytosis inhibition. An outline of the steps:
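THP-1 cells were differentiated to macrophage-like cells with 10 ng/ml IFNγ for 2 days, then treated with test compound for 30 min at room temperature. pHrodo-labeled E. coli opsonized with anti-E. coli antibody were added for 3 h at 37° C. Phagocytosis by viable (Calcein AM-positive) cells was quantified by imaging.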

Experiment [4] concerns 191 types of kinases excluding Syk. As to the kind of experiment: Selectivity of kinase inhibition (Profiler Pro kits). As to conditions: test compound 100 nM; 191 kinases excluding Syk. It is filed as biochemical. Here is the method:
The concentrations of test compounds were adjusted to 100 nM. The test compounds were examined using Profiler Pro kits (Caliper) in terms of activity against each of 191 types of kinases excluding Syk.

In experiment [5] the test system is rat type II collagen arthritis. Kind of experiment: Rat type II collagen-induced arthritis. As to conditions: female Lewis rats, oral administration 10 mg/kg/day, Day 7 to Day 20 once daily, Student's t-test. It is filed as in vivo. As for the experimental part:
The compounds were tested to examine effects upon rat type II collagen arthritis. Equivalent volumes of 0.05 mol/L acetic acid in which a 3 mg/mL bovine type II collagen solution (Collagen Gijutsu Kenshu-Kai) had been dissolved and Freund's incomplete adjuvant (Wako Pure Chemical Industries, Ltd.) were mixed to prepare an emulsion. A portion of the emulsion (0.5 ml) was intradermally injected into the tail bases of 6- to 8-week-old female Lewis rats (Charles River Laboratories Japan, Inc.) (Day 0). Each rat was subjected to the same treatment on Day 7 after the initial inoculation so as to induce arthritis. Each test compound was orally administered from Day 7 to Day 20 once daily. At a given time during the period from Day 7 to Day 21, the rat hindlimb volume was determined using a plethysmometer (UGO BASILE), and the result was designated as an arthritis index.

The test system of experiment [6] is THP-1 cells (TNFα secretion on human IgG-coated plate). Kind of experiment: TNFα generation assay. It is filed as cell-based. As to conditions: IFN-γ differentiated THP-1 cells, 7 hours, AlphaLISA, read-out: IC50 of TNFα generation inhibitory activity. An outline of the steps: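 THP-1 cells were differentiated with 10 ng/ml IFN-γ for 2 days, then preincubated with compound for 30 min at room temperature. They were then plated at 5×10^4 cells/well on plates coated with human IgG (10 μg/ml). TNFα secreted over 7 h of culture was quantified by AlphaLISA.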

On to `C[C@H](N)[C@H](Nc1nc(Nc2cnc(N3CCOCC3)c(F)c2)c(C(N)=O)cc1F)C1CC1` [Example 2-76, 6-(((1R,2S)-2-amino-1-cyclopropylpropyl)amino)-5-fluoro-2-((5-fluoro-6-morpholinopyridin-3-yl)amino)nicotinamide], for which the IC50 in experiment [1] lay within 10 to 50 nM; in experiment [3], 1000 to 3000 nM; in experiment [6], 130 to 200 nM. Also, the change in vivo at 50 mg/kg in experiment [2] is at least 50%. Also, in experiment [4], the “number of kinases other than Syk with kinase inhibitory rate of 75% or more” value is 8 types of kinases. The “hindlimb swelling on Day 20 compared with the control group” value in experiment [5] is “significantly inhibited hindlimb swelling”.
In the case of `CN(C)c1nn(C)c2ccc(Nc3nc(N[C@@H]4CCCC[C@@H]4N)c(F)cc3C(N)=O)cc12` [Example 2-1, 6-(((1R,2S)-2-aminocyclohexyl)amino)-2-((3-(dimethylamino)-1-methyl-1H-indazol-5-yl)amino)-5-fluoronicotinamide], the IC50 is under 10 nM in experiment [1], under 1000 nM in experiment [3] and 65 to 130 nM in experiment [6]. Besides, the change in vivo at 50 mg/kg in experiment [2] is at least 50%. The “hindlimb swelling on Day 20 compared with the control group” value in experiment [5] was “significantly inhibited hindlimb swelling”.
